{"source": "patent US20120053076A1", "about": "“METHODS FOR IDENTIFICATION” (Cambridge Enterprise Limited, priority 2009, published 2012)", "target": "T1, sstr2 (Homo sapiens, UniProt P30874)", "T1 construct": "with 1×10^6 THP-1 cells in Gey's Balanced Salt Solution; endogenous in cells; host or cells: THP-1 cells (whole cells, 4° C.)", "T1 sequence (P30874 whole entry)": "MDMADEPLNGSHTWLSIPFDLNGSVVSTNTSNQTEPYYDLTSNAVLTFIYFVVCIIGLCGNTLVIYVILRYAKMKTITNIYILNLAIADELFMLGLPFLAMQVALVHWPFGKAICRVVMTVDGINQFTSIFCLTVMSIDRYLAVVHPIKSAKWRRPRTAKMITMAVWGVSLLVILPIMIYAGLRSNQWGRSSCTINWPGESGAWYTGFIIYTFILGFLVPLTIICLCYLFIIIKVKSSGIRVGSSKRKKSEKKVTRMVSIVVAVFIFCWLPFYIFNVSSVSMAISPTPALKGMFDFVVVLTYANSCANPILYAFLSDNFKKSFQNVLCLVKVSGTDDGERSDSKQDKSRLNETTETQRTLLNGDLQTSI", "test": "Equilibrium binding of [3H]-BN83250 to THP-1 cells", "details": "competition with [3H]-BN83250", "method": "Methods: [^3H]-BN83250 was synthesesized from (S,E)-3-(2′,2′-dimethyldodec-4′-enoylamino)-caprolactam by catalytic hydrogenation using tritium gas over a palladium catalyst (CRB Ltd, Cleveland, UK), yielding the tritiated product at a concentration of […] in ethanol with a specific activity of 220 Ci/mmol. The (S,E)-3-(2′,2′-dimethyldodec-4′-enoylamino)-caprolactam was prepared as follows: (S,S)-3-amino-caprolactam hydro-pyrrolidine-5-carboxylate (10 mmol) and Na2CO3 (30 mmol) in water (30 ml) were added to a solution of 2,2-dimethyl-dodec-4-enoyl chloride (10 mmol) in dichloromethane (30 ml) at ambient temperature and the reaction was stirred for 12 hours. The organic layer was then separated and the aqueous phase was extracted with additional dichloromethane (2×25 ml). The combined organic layers were dried over Na2CO3 and reduced in vacuo. The residue was purified by silica column chromatography (1:1 EtOAc:hexanes to EtOAc) to give […]-3-(2′,2′-dimethyl-dodec-4′-enoyl)amino-caprolactam as a colourless oil (2.12 g, 63%). The radiolabelled compound was stored in the dark at 4° C. until required. Prior to use the specific activity was adjusted by addition of unlabelled BN83250.\nFor the analysis of binding, individual reactions were set up (in triplicate for each condition), with 1×10^6 THP-1 cells in Gey's Balanced Salt Solution, 10 nM [^3H]-BN83250 (at 50 Ci/mmol) and various concentrations of (S)-3(2′2′-dimethylpropionoylamino)-tetrahydropyridin-2-one (10 pM to 10 μM). Excess (100 μM) unlabelled BN83250 was used to determine the level of non-specific binding. After 2 hours at 4° C. (conditions previously shown to achieve equilibrium binding, and which prevent uptake of the radioligand that would result in an over-estimate of binding) excess label was washed away by centrifugation (3 washes with 5 ml of Gey's Balanced Salt Solution) and the bound radioactivity was determined by scintillation counting of the solubilised cell pellet.", "data": [{"smiles": "CC(C)(C)C(=O)N[C@H]1CCCNC1=O", "note": "[Valerolactam, (S)-3-(2′,2′-dimethylpropionoylamino)-tetrahydropyridin-2-one]", "values": [{"measurement": "Hill Slope", "value": "approximately −1.0"}]}]}
